Data from ChEMBL document CHEMBL5625222, “Design, synthesis, and biological evaluation of 1,6-naphthyridine-2-one derivatives as novel FGFR4 inhibitors for the treatment of colorectal cancer” (Eur J Med Chem, 2023).
Calls of active or inactive are those of the source. The rule behind the calls is not given here.

Legend:
SW480 = experiment: cells; conditions: Homo sapiens, SW480, 48 h
Description: Antiproliferative activity against human SW480 cells assessed as inhibition of cell growth incubated for 48 hrs by MTT assay

HCT-116 [1] = experiment: cells; conditions: Homo sapiens, HCT-116, 48 h
Description: Antiproliferative activity against human HCT-116 cells assessed as inhibition of cell growth incubated for 48 hrs by MTT assay

RKO = experiment: cells; conditions: Homo sapiens, 48 h
Description: Antiproliferative activity against human RKO cells assessed as inhibition of cell growth incubated for 48 hrs by MTT assay

[2] = Antiproliferative activity against human Intestinal epithelial cell assessed as inhibition of cell growth incubated for 48 hrs by MTT assay; type: toxicity, cell-based; conditions: human intestinal epithelial cells
BaF3 = experiment: Antiproliferative activity against mouse BaF3 transfected with FGFR4 assessed as inhibition of cell growth incubated for 72 hrs by CCK-8 assay; type: toxicity, cell-based; conditions: BaF3, 72 h
[3] = Toxicity in BALB/c mouse xenografted with human HCT-116 cells assessed as histopathological change in kidney at 10 mg/kg,po administrated for 2 weeks by hematoxylin and eosin staining based analysis; type: organism-based; conditions: in vivo, 336 h
HCT-116 [4] = experiment: Antitumor activity against human HCT-116 cells xenografted in BALB/c mouse assessed as tumor growth inhibition at 10 mg/kg,po administrated for 2 weeks relative to control; type: functional; conditions: HCT-116, 336 h, read-out: TGI
[5] = Toxicity in BALB/c mouse xenografted with human HCT-116 cells assessed as increase in serum AST level at 10 mg/kg,po administrated for 2 weeks; type: organism-based; conditions: in vivo, 336 h
HCT-116 [6] = experiment: Antitumor activity against human HCT-116 cells xenografted in BALB/c mouse assessed as change in cell morphology at 10 mg/kg,po administrated for 2 weeks by hematoxylin and eosin staining based analysis; type: functional, organism-based
HCT-116 [7] = experiment: Antitumor activity against human HCT-116 cells xenografted in BALB/c mouse assessed as chromatin condensation at 10 mg/kg,po administrated for 2 weeks by hematoxylin and eosin staining based analysis; type: functional, organism-based

Row | SMILES | IC50 (SW480) | IC50 (HCT-116 [1]) | IC50 (RKO) | IC50 at 48 h [2] | IC50 (BaF3) | Activity [3] | inhibition in vivo at 10 mg/kg (HCT-116 [4]) | Activity [5] | Activity (HCT-116 [6]) | Activity (HCT-116 [7])
1 | C=CC(=O)Nc1cccc(C)c1Nc1cc2c(cn1)cc(-c1c(Cl)c(OC)cc(OC)c1Cl)c(=O)n2CCCO | 12.8 µM | 7.21 µM | 9.32 µM | 24 µM |  |  |  |  |  | 
2 | C=CC(=O)NCCCn1c(=O)c(-c2cc(OC)cc(OC)c2)cc2cnc(Nc3c(C)cccc3N3CCN(C)CC3)cc21 | 12.7 µM | 10.8 µM | 11.5 µM | 21.3 µM |  |  |  |  |  | 
3 | C=CC(=O)Nc1cccc(C)c1Nc1ncc2cc(-c3c(Cl)c(OC)cc(OC)c3Cl)ccc2n1 | 12.7 µM | 8.89 µM | 19.7 µM | 18.4 µM | 0.00512 µM |  |  |  |  | 
4 | CNC(=O)c1c(C)oc2cc(Oc3ncnc4cc(OC)c(OC)cc34)ccc12 [FRUQUINTINIB] |  |  |  |  |  | Toxic | 63.7% | Toxic | Active | Active
5 | COc1cc(OC)c(Cl)c(-c2cc3cnc(Nc4c(C)cccc4N4CCCCC4)cc3n(CCCN3CCCCC3)c2=O)c1Cl | 10.3 µM | 9.37 µM | 11.2 µM | 25.1 µM |  |  |  |  |  | 
6 | COc1cc(OC)cc(-c2cc3cnc(Nc4c(C)cccc4N4CCOCC4)cc3n(CCCO)c2=O)c1 | 22.8 µM | 11.9 µM | 9.25 µM | 19.5 µM |  |  |  |  |  | 
